According to ChEMBL document CHEMBL3832032, “DailyMed|setid=2238e083-08f2-0aa8-59b7-16b6d68dbd48 | ALPRAZOLAM - alprazolam tablet|Apotex Corp”:

Assays:
Assay type in all cases: ADME, organism-based
[1] = system: Homo sapiens; test: Evaluation of pharmacokinetic parameters for Alprazolam following single oral administration of Alprazolam, and following co-administration with multiple doses of carbamazepine.; settings: in vivo, dose 0.8 mg, dosed compound id 23, dosed compound name ALPRAZOLAM, regimen Single dose, tissue Plasma
[2] = system: Homo sapiens; test: (§1) Pharmacokinetic parameters for Alprazolam evaluated after oral administration of alprazolam to subjects of different ages and health conditions.; design: route oral, dose Range 0.5 to 3; settings: in vivo, po, dosed compound id 23, dosed compound name ALPRAZOLAM, gender male and female, tissue Plasma
[3] = as §1; design: route oral, dose Range 0.5 to 3; settings: human, in vivo, dosed compound id 23, dosed compound name ALPRAZOLAM, gender male and female, tissue Plasma
[4] = interact cpd dose 300 mg, inter cpd dos duration 10 days

In the case of `Cc1nnc2n1-c1ccc(Cl)cc1C(c1ccccc1)=NC2` [ALPRAZOLAM], the CL [1, 4] is reported as 2.13 mL/min/kg, the t1/2 [1, 4] is reported as 7.7 h and the CL [1] is reported as 0.9 mL/min/kg. For the same compound, the t1/2 [1] was 17.1 h, the t1/2 ([2]; dose Range 0.5 to 3 mg) was 11.2 h and the t1/2 [2] was 16.3 hr [middle of 5 runs]. The Cmax ([3]; po) was 8 to 37 ng/mL and the Tmax ([3]; dose Range 0.5 to 3 mg, route oral) was 1 to 2 h.
